# Columns and labels:
# [1] = system: cerebral organoids; assay: RT-qPCR of marker gene expression after DAPT treatment; type: cell-based, human; details: for expression of Hes1: single-cell DAPT method (step (iv))
# Experimental: Total RNA was obtained with an RNeasyMicroKit (QIAGEN), and reverse transcription reaction was performed with a SuperScript III First-Strand Synthesis System ([…]) in accordance with a protocol from the provider. Quantitative PCR was carried out by using TaqMan (TM) Gene Expression Master Mix (Thermo Fisher Scientific Inc.) or SYBR Green Master Mix (Thermo Fisher Scientific Inc.) in accordance with instruction from the manufacturer. The expression levels of genes were normalized to that for GAPDH by using the […] method.
# To analyze the influence of the DAPT treatment period on differentiation, cerebral organoids in week 7 of induction of differentiation were treated with 10 μM DAPT for 3 to 7 days according to a method or scheme shown in FIG. 16(A) (organoid DAPT method), and the variation of gene expression was analyzed by RT-qPCR; the results are shown in FIG. 16(B). The ordinate represents relative expression levels to GAPDH.
# Furthermore, organoids on Day 25, Day 32, Day 39, and Day 72 (the periods of induction of differentiation: about 4 weeks, 5 weeks, 6 weeks, and 10 weeks, respectively) were cultured in the presence or absence of DAPT for 3 days, and the cerebral organoids on Day 28 (4 wk), Day 35 (5 wk), Day 42 (6 wk), and Day 75 (10 wk) were analyzed for the expression levels of marker genes by RT-qPCR; the results of analysis of the relative expression levels of the markers are shown in FIG. 18. […] For the organoids in week 10, no reduction in expression of Ki67 was found, and no influence was found in expression of Satb2, too.
# In the “single-cell DAPT method (DAPT treatment is performed in step (iv))” in FIG. 24(B), cerebral organoids were screened on day 38 after the initiation of induction of differentiation and dispersed into single cells by the method described for step (iii) in Example 4, and the cells were then suspended in a culture medium obtained by adding 10 ng/mL GDNF, 20 ng/mL BDNF, 200 μM ascorbic acid, 400 μM dibutyryl-cAMP, and 30 μM Y-27632 to the culture medium in step (2b) with addition of DAPT at a concentration of 0 μM, 0.1 μM, 1 μM, or 10 μM. Subsequently, the cells were regathered by the method described for step (iv) in Example 4 in the presence of DAPT, and cultured for 1 day, 2 days, or 3 days. Thereafter, the culture medium was switched to a culture medium obtained by adding 10 ng/mL GDNF, 20 ng/mL BDNF, 200 μM ascorbic acid, and 400 μM dibutyryl-cAMP to the culture medium in step (2b), and culture was continued until day 10 after the initiation of reaggregation. The cells on day 3, day 4, or day 10 after the initiation of reaggregation were analyzed by RT-qPCR, and the cells on day 10 were analyzed by flow cytometry; the results are shown in FIGS. 25 to 27.
# [2] = system: cerebral organoids; assay: Immunostaining of cell aggregates after DAPT treatment; type: cell-based, human
# Experimental: Organoids were fixed with 4% paraformaldehyde for 30 minutes, subjected to dehydration reaction with 30% (w/v) sucrose in PBS, and embedded with O.C.T. compound (Sakura Finetek Japan Co., Ltd.). Frozen sections were prepared in a thickness of 16 μm by using a cryostat (CM1850, Leica Biosystems Nussloch GmbH). Permeabilization was performed with 0.3% or 2% (v/v) Triton-X100, and, as necessary, antigen retrieval reaction was performed. Blocking was performed with Block ACE (KAC Co., Ltd.), and double- or triple-label staining was then performed. Primary antibodies and secondary antibodies for use in immunostaining were diluted to recommended concentrations before use.
# As illustrated by a scheme shown in FIG. 11(A), in step (ii), cerebral organoids were screened on day 33 after the initiation of induction of differentiation (Day 33), the culture medium was replaced with one obtained by adding 10 μM DAPT to the culture medium in step (2b), and suspension culture was performed at 37° C. under 5% CO2 for 3 days. As a result, cerebral cortical cell aggregates were obtained.
# The cerebral cortical cell aggregates (Day 36) and high-purity cerebral cortical cell aggregates (Day 40) were further immunostained for the cortical layer V/VI progenitor cell (deep layer) marker Ctip2, the telencephalon marker Foxg1, the neural stem cell (radial glia) marker […], and the proliferative cell marker Ki67.
# Organoids on Day 25, Day 32, Day 39, and Day 72 (the periods of induction of differentiation: about 4 weeks, 5 weeks, 6 weeks, and 10 weeks, respectively) were cultured in the presence or absence of DAPT for 3 days, and the organoids on Day 28 (4 wk), Day 42 (6 wk), and Day 75 (10 wk) were analyzed for different markers by immunostaining. […] Satb2 is a cortical layer II-IV progenitor cell (upper layer) marker.
# [3] = cerebral organoids in week 7, 10 μM DAPT for 3 to 7 days (organoid DAPT method)
# [4] = organoids in week 4 to week 6, DAPT for 3 days
# [5] = organoids in week 10, DAPT for 3 days
# [6] = organoids Day 33, 10 μM DAPT for 3 days, Day 36
structure (smiles),measurement,setting,value
"C[C@H](NC(=O)Cc1cc(F)cc(F)c1)C(=O)N[C@H](C(=O)OC(C)(C)C)c1ccccc1 [DAPT, N-[N-(3,5-difluorophenacetyl)-L-alanyl]-S-phenylglycine t-butyl ester]",expression of Ctip2,[1]; [3],enhanced as the DAPT treatment period was prolonged
same,"expressions of Pax6, Sox2, and Ki67",[1]; [3],declined as the DAPT treatment period was extended
same,expression of Ctip2,[1]; [4],enhanced expression
same,expression of Pax6 and Ki67,[1]; [4],reduced expression
same,expression of Ki67,[1]; [5],no reduction
same,expression of Satb2,[1]; [5],no influence
same,expression of Hes1,"[1]; 10 μM DAPT, 1-day and 2-day treatment, as culture proceeded",upregulated again
same,expression of Hes1,"[1]; 10 μM DAPT, 3-day treatment",suppressed over the 10 days
same,expression of Hes1,"[1]; DAPT 0.1 to 1 μM, 3 days",not sufficiently suppressed
same,cerebral cortex-like layered structure (immunostaining),[2]; [6],no cerebral cortex-like layered structure was found
same,expression of Ki67 (immunostaining),[2]; [6],almost no expression
same,number of Ctip2/Bf1-co-positive cells,[2]; [4],increased number
same,number of Ki67-positive cells,[2]; [4],decreased number
same,proportion of Ctip2-positive cells and that of Satb2-positive cells,[2]; [5],no significant change
